Results taken from ChEMBL document CHEMBL4265947, “Conformation impacts on the bioactivities of SMART analogues” (Eur J Med Chem, 2018).

Columns and labels:
[1] = Selectivity index, ratio of IC50 for mouse L929 cells to IC50 for human HT1080 cells; assay type: toxicity; conditions: L929 cells versus HT1080 cells, read-out: Ratio IC50
[2] = test system: L929; assay: Antiproliferative activity against mouse L929 cells after 72 hrs by MTT assay; assay type: cell-based; conditions: L929, 72 h
[3] = test system: A549; assay: Antiproliferative activity against human A549 cells after 72 hrs by MTT assay; assay type: functional, cell-based; conditions: A549, 72 h
[4] = test system: SGC-7901; assay: Antiproliferative activity against human SGC7901 cells after 72 hrs by MTT assay; assay type: functional, cell-based; conditions: SGC-7901, 72 h
[5] = test system: HT-1080; assay: Antiproliferative activity against human HT1080 cells after 72 hrs by MTT assay; assay type: functional, cell-based; conditions: HT-1080, 72 h
[6] = Selectivity index, ratio of IC50 for mouse L929 cells to IC50 for human A549 cells; assay type: toxicity; conditions: L929 cells versus A549 cells, read-out: Ratio IC50
[7] = Selectivity index, ratio of IC50 for mouse L929 cells to IC50 for human SGC7901 cells; assay type: toxicity; conditions: L929 cells versus SGC7901 cells, read-out: Ratio IC50
[8] = (§1) Inhibition of porcine tubulin polymerization preincubated for 1 min and measured for 82 mins by fluorescence assay; design: species or system Sus scrofa
[9] = organism: Sus scrofa; assay: as §1

Row | IC50 [3] [nM] | IC50 [4] [nM] | IC50 [5] [nM] | IC50 [8] [nM] | inhibition [9] | SMILES | selectivity ratio [1] | IC50 [2] [nM] | selectivity ratio [6] | selectivity ratio [7]
1 | 15300 | 6770 | > 100000 |  |  | COc1cc(C(=O)c2nnc(-c3ccc(C)cc3)o2)cc(OC)c1OC |  |  |  | 
2 | 1070 | 380 | 650 | 7710 | Dose-dependent effect | COc1cc(C(=O)c2nc(-c3ccc(C)cc3)n[nH]2)cc(OC)c1OC | 65.5 | 42600 | 39.8 | 112
3 |  |  | 150 |  |  | COc1cc(C(=O)c2csc(-c3ccccc3)n2)cc(OC)c1OC |  |  |  | 
4 | 35300 | > 100000 | > 100000 | > 100000 |  | COc1cc(C(=O)c2nnc(-c3ccc(C)cc3)s2)cc(OC)c1OC |  |  |  | 

Row | SMILES | IC50 [3] [nM] | IC50 [4] [nM] | IC50 [5] [nM] | IC50 [8] [nM] | inhibition [9] | selectivity ratio [1] | IC50 [2] [nM] | selectivity ratio [6] | selectivity ratio [7]
5 | COc1cc2c(c(OC)c1OC)-c1ccc(OC)c(=O)cc1[C@@H](NC(C)=O)CC2 [COLCHICINE] | 137 | 134 | 42 |  |  | 24 | 1010 | 7.4 | 7.5
6 | COc1ccc(/C=C\c2cc(OC)c(OC)c(OC)c2)cc1O [COMBRETASTATIN A4] | 16 | 12 |  |  |  |  | 820 |  | 
